Measurements: patent publication US20250381110A1, “SKIN CARE COMPOSITION AND METHOD OF USING THE SAME” (THE PROCTER & GAMBLE COMPANY, priority 2024, published 2025)
Structures can show the parent of a compound that is named as a salt. Each block holds one compound with its values, some of them ahead of it.

Tested on: p62-dependent mitophagy
Test: Luciferase-p62 assay (Fluc-p62 clearance) in mouse embryonic fibroblasts
Format: cell-based
Details: for Mean Luminescence: Luciferase-p62 assay, mouse embryonic fibroblasts (MEFs), compounds at 10 μM; for % Activity over baseline: percentage of Luciferase-p62 clearance relative to baseline (mean luminescence in the absence of doxycycline induction); for % Activity over baseline / % Activity relative to Rapamycin: MEFs, 10 μM; for % Activity relative to Rapamycin: percentage of activity relative to rapamycin tested in the same experiment at the same concentration
Method: To identify p62-dependent materials which increase mitophagy, a Luciferase-p62 Assay was established. This method provides an approach to measure the ability of a material to modulate p62-dependent mitophagy by using an inducible firefly luciferase-p62 (Fluc-p62) reporter cell system. In this assay, p62 levels are driven by doxycycline treatment. After levels increased, expression of Fluc-p62 is turned off by removal of doxycycline, materials are then added and assessed for how they affect clearance of Fluc-p62 protein, which is proportionate to cellular mitophagy rates (Kelly et al.). The negative control is doxycycline induced Luc-p62 in the absence of compound or bioactive material treatment and in the presence of vehicle (DMSO).
Test materials including bioactive materials were screened in mouse embryonic fibroblasts (MEFs, Harada et al.) expressing the TET-inducible p62-fluc construct as previously described (Brown et al.). […] Gibson assembly was used to insert firefly luciferase (Fluc) and p62 into the pCW57.1 backbone. Fluc, p62, and pCW57.1 were polymerase chain reaction (PCR) amplified using pfu polymerase (Life technologies) and Gibson assembly primers with 20 base pair (bp) overhangs. PCR products were separated by agarose gel electrophoreses, and fragments excised and purified before use in DNA assembly reaction with NEBuilder HiFi DNA Assembly kit (New England Biolabs). After the assembly, the reaction mix was transformed into NEB3040 Stable Competent Escherichia coli (New England Biolabs). After 24 hours growth at 31 degrees Celsius the plasmid was extracted using QIAprep Spin Miniprep kit (Qiagen). The plasmid was sequenced to confirm correct insertion of Fluc-p62. To generate MEFs stably expressing doxycycline inducible Fluc-p62, HEK293FT cells were transfected with Fluc-p62-pCW57.1 and the ViraPower Packaging Mix (Invitrogen) to produce lentivirus. MEFs were transduced with the obtained lentiviral stock following followed by selection with 1 microgram per milliliter puromycin.Fluc-p62expressing MEFs were maintained in DMEM supplemented with 10 percent fetal bovine serum (FBS), 100 units per milliliter penicillin/streptomycin, and 2 millimolar L-glutamine in a humidified atmosphere containing 5 percent carbon dioxide at 37 degrees Celsius. Cells were plated into white 96 well plates (2,000 cells per well with 100 microliters media) and allowed to settle for 24 hours. […] Subsequently, cells were treated with test materials for 48 hours in normal growth medium and analysed using ONE-Glo™+Tox Luciferase Reporter and Cell Viability Assay (Promega) by following the manufacturer's protocol.
Test compositions and control compositions were prepared as described above in the Luciferase-p62 assay (Method 3) and tested accordingly. The compounds used in this example, as examples of bioactive materials, were from the APExBIO DiscoveryProbe™ Natural Product Library Plus (Houston, TX) and evaluated at equivalent concentrations (10 μM).
Data are additionally calculated as percentage of activity relative to rapamycin, a benchmark control compound tested in the same experiment.

SMILES: CC(=O)O[C@H]1C(=O)[C@@]2(C)[C@H]([C@H](OC(=O)c3ccccc3)[C@]3(O)C[C@H](OC(=O)[C@H](O)[C@@H](NC(=O)c4ccccc4)c4ccccc4)C(C)=C1C3(C)C)[C@]1(OC(C)=O)CO[C@@H]1C[C@@H]2O [Compound 7-Epitaxol]
Mean Luminescence: 968.61
% Activity over baseline: 40.14%
% Activity relative to Rapamycin: 72.32%

Mean Luminescence: 520.57
% Activity over baseline: 67.83%
% Activity relative to Rapamycin: 122.21%
SMILES: CCCCCCCCC[C@H](O)CC(=O)CCc1ccc(O)c(OC)c1 [Compound 10-Gingerol]

SMILES: O=C(O[C@@H]1O[C@@H]2COC(=O)c3cc(O)c(O)c(O)c3-c3c(cc(O)c(O)c3O)C(=O)O[C@H]([C@H]1O)[C@@H]2O)c1cc(O)c(O)c(O)c1 [Corilagin]
Mean Luminescence: 985.42
% Activity over baseline: 39.10%
% Activity relative to Rapamycin: 70.45%

SMILES: C[C@]12C[C@H](O)[C@H]3[C@@H](CCC4=CC(=O)CC[C@@]43C)[C@@H]1CC[C@@H]2C(=O)CO [Corticosterone]
Mean Luminescence: 870.00
% Activity over baseline: 46.23%
% Activity relative to Rapamycin: 83.30%

SMILES: CN(CC(=O)O)C(=N)N.O [Creatine monohydrate]
Mean Luminescence: 901.68
% Activity over baseline: 44.28%
% Activity relative to Rapamycin: 79.77%

SMILES: N=c1ccn2c(n1)O[C@H]1[C@H](O)[C@@H](CO)O[C@H]12 [Cyclocytidine HCl]
Mean Luminescence: 914.30
% Activity over baseline: 43.50%
% Activity relative to Rapamycin: 78.37%

SMILES: CC1=C2C[C@H]3[C@@H](CC=C4C[C@@H](O)CC[C@@]43C)[C@@H]2CC[C@]12O[C@@H]1C[C@H](C)CN[C@H]1[C@H]2C [Cyclopamine]
Mean Luminescence: 471.92

SMILES: Nc1ccn([C@@H]2O[C@H](CO)[C@@H](O)[C@H]2O)c(=O)n1 [Cytidine]
Mean Luminescence: 841.40
% Activity over baseline: 48.00%
% Activity relative to Rapamycin: 86.49%

SMILES: N[C@H](Cc1ccccc1)C(=O)O [D-Phenylalanine]
Mean Luminescence: 763.78
% Activity over baseline: 52.80%
% Activity relative to Rapamycin: 95.13%

SMILES: O=C1CC[C@H](C(=O)O)N1 [D-Pyroglutamic acid]
Mean Luminescence: 938.93
% Activity over baseline: 41.97%
% Activity relative to Rapamycin: 75.63%

SMILES: CCN(CC)c1ccc(/C=N/NC(=O)c2ccc(O)cc2)cc1 [DY131]
Mean Luminescence: 878.41
% Activity over baseline: 45.71%
% Activity relative to Rapamycin: 82.36%

SMILES: Cc1nc(Nc2ncc(C(=O)Nc3c(C)cccc3Cl)s2)cc(N2CCN(CCO)CC2)n1 [Dasatinib Monohydrate]
Mean Luminescence: 410.49
% Activity over baseline: 74.63%
% Activity relative to Rapamycin: 134.47%

Mean Luminescence: 653.14
% Activity over baseline: 59.64%
% Activity relative to Rapamycin: 107.45%
SMILES: Oc1ccc(OC2CCCCO2)cc1 (stereo not shown) [Deoxyarbutin]

SMILES: C[C@H](CCC(=O)O)[C@H]1CC[C@H]2[C@@H]3CC[C@@H]4C[C@H](O)CC[C@]4(C)[C@H]3C[C@H](O)[C@]12C [Deoxycholic acid sodium salt]
Mean Luminescence: 591.12
% Activity over baseline: 63.47%
% Activity relative to Rapamycin: 114.35%

SMILES: CC(=O)OCC(=O)[C@@]1(O)[C@H](C)C[C@H]2[C@@H]3CCC4=CC(=O)C=C[C@]4(C)[C@@]3(F)[C@@H](O)C[C@@]21C [Dexamethasone acetate]
Mean Luminescence: 681.22
% Activity over baseline: 57.90%
% Activity relative to Rapamycin: 104.32%

SMILES: CN1CCN(c2cc3c(cc2F)c(=O)c(C(=O)O)cn3-c2ccc(F)cc2)CC1 [Difloxacin HCl]
Mean Luminescence: 980.30
% Activity over baseline: 39.42%
% Activity relative to Rapamycin: 71.02%

SMILES: COC(=O)/C=C/C(=O)OC [Dimethyl Fumarate]
Mean Luminescence: 786.79
% Activity over baseline: 51.38%
% Activity relative to Rapamycin: 92.57%
